Some test systems named below: M14 melanoma; DU-145 prostate; MDA-N; IGROV1 ovarian; HCT-116 colon; HL-60(TB) leukemia; SK-MEL-28 melanoma; CCRF-CEM leukemia; NCI-H23 lung; NCI-H226 lung.
Common to all, as to experiment: growth of human tumour cells (NCI), 48 h

The structures appear in SMILES notation.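 Exposure lasted 48 hours, with cells grown in 96-well plates and compounds tested at five concentrations. TGI is the concentration that stops growth completely.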 Where only a bound is given, the exact number is not on record here.

Results on 14 compounds are retold here after PubChem BioAssay (NCI).

Regarding `CC(=O)Oc1ccc(C)c2c1[C@H]1CC[C@]3(C)[C@@H](OC(C)=O)CC[C@H]3[C@@H]1CC2`, the TGI in the experiment with M14 melanoma is 32.2 µM; in the experiment on DU-145 prostate, 66.6 µM; in the experiment on MDA-N, 36.8 µM; in the experiment on IGROV1 ovarian, 36.4 µM; in the experiment with HCT-116 colon, 31.2 µM; in the experiment on HL-60(TB) leukemia, 51.5 µM. The TGI stood at 33.2 µM with SK-MEL-28 melanoma, 55.2 µM with CCRF-CEM leukemia, 34.7 µM in the experiment on NCI-H23 lung and 54.8 µM in the experiment with NCI-H226 lung.

For the compound `CC(C)(C)c1cc(OCc2n[nH]c(=S)n2N)c(Cl)cc1OCc1n[nH]c(=S)n1N`, the TGI in the experiment on M14 melanoma was above 100 µM; in the experiment on DU-145 prostate, above 100 µM; in the experiment on MDA-N, above 100 µM; with IGROV1 ovarian, above 100 µM; in the experiment with HCT-116 colon, above 100 µM; in the experiment with HL-60(TB) leukemia, 58.5 µM. Moreover, the TGI in the experiment with SK-MEL-28 melanoma, in the experiment with CCRF-CEM leukemia, with NCI-H23 lung and in the experiment with NCI-H226 lung was above 100 µM each time.

As for `CCOC(=O)C12CCC(c3c(C)cccc3C)(O1)C(C(=O)OC)=C2C(=O)OC` (stereo not given), the TGI was above 9.53 µM in the experiment with M14 melanoma; above 10 µM with DU-145 prostate; 1.98 µM in the experiment on MDA-N; above 10 µM in the experiment on IGROV1 ovarian; above 10 µM in the experiment with HCT-116 colon; above 7.4 µM in the experiment on HL-60(TB) leukemia. Moreover, the TGI was above 10 µM in the experiment with SK-MEL-28 melanoma, above 10 µM in the experiment on CCRF-CEM leukemia, above 8.69 µM with NCI-H23 lung and above 10 µM in the experiment on NCI-H226 lung.

As for `CCOC(=O)CN1C(=O)c2c(NC(=O)C(=O)O)cccc2S1(=O)=O`, the TGI with M14 melanoma, in the experiment on DU-145 prostate, in the experiment with MDA-N, in the experiment with IGROV1 ovarian, in the experiment with HCT-116 colon and in the experiment with HL-60(TB) leukemia was above 100 µM each time. Further, the TGI in the experiment on SK-MEL-28 melanoma, with CCRF-CEM leukemia, in the experiment with NCI-H23 lung and with NCI-H226 lung was above 100 µM throughout.

In the case of `Cc1cnc2c(c1)C(=O)N(c1ccc(Br)cc1)S2(=O)=O`, the TGI in the experiment with M14 melanoma, with DU-145 prostate, with MDA-N, with IGROV1 ovarian, with HCT-116 colon and in the experiment with HL-60(TB) leukemia was above 100 µM in each case. In addition, the TGI in the experiment on SK-MEL-28 melanoma, in the experiment with CCRF-CEM leukemia, with NCI-H23 lung and in the experiment on NCI-H226 lung was above 100 µM each time.

For the compound `CCOC(=O)c1c(Br)c(-c2ccc([N+](=O)[O-])cc2)c(Br)n1C`, the TGI with M14 melanoma, in the experiment with DU-145 prostate, in the experiment with MDA-N, in the experiment on IGROV1 ovarian, in the experiment with HCT-116 colon and in the experiment on HL-60(TB) leukemia was above 10 µM throughout. For the same compound, the TGI with SK-MEL-28 melanoma, in the experiment on CCRF-CEM leukemia, in the experiment on NCI-H23 lung and with NCI-H226 lung was above 10 µM throughout.

Regarding `C[N+]1(C)C/C(=C\C=C\c2ccccc2)C(=O)/C(=C/C=C/c2ccccc2)C1`, the TGI with M14 melanoma is 39.1 µM; with DU-145 prostate, 37.2 µM; in the experiment on MDA-N it was 11.1 µM; in the experiment with IGROV1 ovarian, 35.8 µM; with HCT-116 colon, 28.9 µM; in the experiment with HL-60(TB) leukemia, 4.13 µM. In addition, the TGI with SK-MEL-28 melanoma was 17 µM; in the experiment on CCRF-CEM leukemia, 13.7 µM; in the experiment with NCI-H23 lung, 34.4 µM; in the experiment with NCI-H226 lung it was above 72.1 µM.

Turning to `c1cc2cc(Cc3ccc4[nH]ccc4c3)ccc2[nH]1`, the TGI with M14 melanoma is 37.7 µM; with DU-145 prostate, 56.2 µM; in the experiment with MDA-N, 26.5 µM; with IGROV1 ovarian, 39.4 µM; in the experiment with HCT-116 colon, 33.1 µM; in the experiment on HL-60(TB) leukemia it was 54.4 µM. In addition, the TGI was 96.7 µM in the experiment on SK-MEL-28 melanoma, above 100 µM with CCRF-CEM leukemia, 39.8 µM in the experiment on NCI-H23 lung and 34.2 µM in the experiment with NCI-H226 lung.

Regarding `O=C(O)c1ccc(Nc2nc3ccc(C(F)(F)F)cc3nc2-c2ccccc2)cc1`, the TGI in the experiment on M14 melanoma is above 100 µM; with DU-145 prostate, above 10 µM; with MDA-N it was above 100 µM; in the experiment on IGROV1 ovarian, above 100 µM; in the experiment with HCT-116 colon, above 100 µM; in the experiment on HL-60(TB) leukemia, 66.3 µM. For the same compound, the TGI in the experiment on SK-MEL-28 melanoma, in the experiment on CCRF-CEM leukemia, in the experiment with NCI-H23 lung and in the experiment with NCI-H226 lung was above 100 µM in each case.

`CC(C)NC(=O)OCc1c(COC(=O)NC(C)C)c(-c2cc[n+](COC(=O)Cc3ccccc3)cc2)n2c1CCC2`: the TGI in the experiment with M14 melanoma, with DU-145 prostate, with MDA-N, with IGROV1 ovarian, in the experiment on HCT-116 colon and in the experiment on HL-60(TB) leukemia was above 100 µM in each case. For the same compound, the TGI in the experiment with SK-MEL-28 melanoma, with CCRF-CEM leukemia, in the experiment with NCI-H23 lung and in the experiment with NCI-H226 lung was above 100 µM in each case.

On to `O=C(NCCCN1CCN(CCCNC(=O)c2cc(-c3ccccc3)nc3ccccc23)CC1)c1cc(-c2ccccc2)nc2ccccc12`, for which the TGI in the experiment with M14 melanoma is 5.63 µM; with DU-145 prostate, above 67.1 µM; with MDA-N, 20.4 µM; in the experiment with IGROV1 ovarian it was 27.8 µM; in the experiment on HCT-116 colon, above 100 µM; in the experiment on HL-60(TB) leukemia, above 51.8 µM. Moreover, the TGI with SK-MEL-28 melanoma is 3.99 µM; with CCRF-CEM leukemia, above 56.4 µM; in the experiment on NCI-H23 lung, above 100 µM; in the experiment on NCI-H226 lung it was above 65.3 µM.

As for `COc1cc2c(cc1OC)-c1cc3cc(OC)c(OC)cc3c(C)[n+]1CC2` (tested in a mixture with another compound), the TGI with M14 melanoma, with DU-145 prostate, with MDA-N, with IGROV1 ovarian, in the experiment with HCT-116 colon and in the experiment with HL-60(TB) leukemia was above 100 µM in each case. The TGI in the experiment with SK-MEL-28 melanoma was above 100 µM; in the experiment on CCRF-CEM leukemia, 77 µM; with NCI-H23 lung, above 100 µM; with NCI-H226 lung, above 100 µM.

On to `CC(=O)c1ccc(Nc2nc3ccccc3c3occc23)cc1`, for which the TGI came to 36.5 µM in the experiment on M14 melanoma; 75 µM in the experiment with DU-145 prostate; 47.7 µM in the experiment on MDA-N; 36.2 µM with IGROV1 ovarian; 27.8 µM with HCT-116 colon; 2.4 µM in the experiment on HL-60(TB) leukemia. For the same compound, the TGI in the experiment with SK-MEL-28 melanoma was 15.9 µM; with CCRF-CEM leukemia, 67.3 µM; with NCI-H23 lung it was 46.6 µM; with NCI-H226 lung it was 98 µM.

In the case of `CC1=NC(=O)CNN1C1=NNC2(C(=O)N1)c1ccccc1-c1ccccc12`, the TGI in the experiment on M14 melanoma, with DU-145 prostate, in the experiment on MDA-N, in the experiment with IGROV1 ovarian, in the experiment on HCT-116 colon and in the experiment with HL-60(TB) leukemia was above 100 µM throughout. The TGI in the experiment on SK-MEL-28 melanoma, in the experiment on CCRF-CEM leukemia, in the experiment on NCI-H23 lung and with NCI-H226 lung was above 100 µM in each case.
